{"source": "ChEMBL document CHEMBL1149680", "about": "“Unique spirocyclopiperazinium salt. Part 4: modification of dispirocyclopiperazinium (DSPZ) salts as analgesics” (Bioorg Med Chem Lett, 2007)", "key": {"Mus musculus [1]": {"system": "Mus musculus", "experiment": "Analgesic activity in mouse assessed as latency time at 0.04 mmol/kg, sc by hot plate method relative to control", "format": "functional"}, "Mus musculus [2]": {"system": "Mus musculus", "experiment": "Analgesic activity against acetic acid-induced writhing in mouse at 0.04 mmol/kg, sc relative to control", "format": "functional"}}, "data": [{"compound": "C(CN1CC[N+]2(CCCC2)CC1)CN1CC[N+]2(CCCC2)CC1.[Br-].[Br-]", "values": [{"measurement": "Activity", "setting": "Mus musculus [1]", "value": 64.2, "unit": "%"}, {"measurement": "inhibition in vivo at 40 µmol/kg", "setting": "Mus musculus [2]", "value": 81, "unit": "%"}]}]}
